# Results as given in ChEMBL document CHEMBL1201862, “PubChem BioAssay data set” (2004).
# The source made the active and inactive calls. For most assays here, no stated cut-off is given here; in the data, actives have a measured EC50 and inactives only a lower limit.
# What was measured:
# Protein skinhead-1 = target: T1, Protein skinhead-1 (Caenorhabditis elegans, UniProt P34707); format: functional
# T1 sequence (P34707 whole entry): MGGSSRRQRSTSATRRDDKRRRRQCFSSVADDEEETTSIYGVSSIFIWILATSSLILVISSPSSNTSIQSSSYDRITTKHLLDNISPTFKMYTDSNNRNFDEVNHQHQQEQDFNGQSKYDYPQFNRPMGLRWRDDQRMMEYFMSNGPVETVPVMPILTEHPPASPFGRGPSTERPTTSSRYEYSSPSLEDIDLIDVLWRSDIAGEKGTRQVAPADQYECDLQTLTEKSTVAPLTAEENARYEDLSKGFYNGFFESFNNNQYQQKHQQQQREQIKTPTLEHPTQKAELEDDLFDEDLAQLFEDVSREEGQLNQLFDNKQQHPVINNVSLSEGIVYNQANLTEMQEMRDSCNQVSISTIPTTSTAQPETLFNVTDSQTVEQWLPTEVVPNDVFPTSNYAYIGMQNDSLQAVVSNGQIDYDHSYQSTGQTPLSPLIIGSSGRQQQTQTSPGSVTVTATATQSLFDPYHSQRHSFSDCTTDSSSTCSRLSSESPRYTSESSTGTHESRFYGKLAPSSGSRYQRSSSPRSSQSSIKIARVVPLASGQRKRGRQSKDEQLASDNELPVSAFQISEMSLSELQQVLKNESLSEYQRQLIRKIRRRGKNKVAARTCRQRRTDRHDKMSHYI
# BJ [1] = experiment: cells; format: functional, cell-based; settings: Homo sapiens
# BJ [2] = experiment: cytotoxicity toward BJ-TERT-LT-ST fibroblasts, dose response, cell-based, RAS-independent, luminescence (AID 1935); format: functional; settings: Homo sapiens;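 further: BJ fibroblasts immortalized with TERT plus LT and ST oncogenes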
# BJ [3] = experiment: cytotoxicity toward BJ-TERT fibroblasts, dose response, cell-based, RAS-independent, luminescence (AID 1933); format: functional; settings: Homo sapiens
# [4] = Luminescence Cell-Based Dose Response HTS to Identify Inhibitors of 5'UTR Stem-Loop Driven Prion Protein mRNA Translation in H4 Neuroglioblastoma Cells. [Related pubchem assays: 1827 (Project Summary), 1813 (Primary HTS)]; format: functional
# [5] = inhibitors of firefly luciferase expression or activity, dose response, H4 neuroglioma cells, luminescence (AID 1990); format: functional, cell-based
# [6] = cytotoxicity toward DRD oncogenic fibroblasts, dose response, cell-based, non-viral oncogenic, luminescence (AID 1934); format: functional; settings: Homo sapiens
# [7] = inhibitors of SNCA 5'UTR-driven reporter translation, confirmation, H4 neuroglioma cells, luminescence (AID 1988); format: functional, cell-based
# [8] = target: T2, Corticotropin-releasing factor receptor 2/Corticotropin-releasing factor-binding protein (Homo sapiens, UniProt P24387+Q13324); experiment: Dose Response confirmation of uHTS hits for small molecule antagonists of the CRF-binding protein and CRF-R2 receptor complex.; format: functional; settings: read-out: IC50_Mean
# T2 sequence (Q13324 whole entry): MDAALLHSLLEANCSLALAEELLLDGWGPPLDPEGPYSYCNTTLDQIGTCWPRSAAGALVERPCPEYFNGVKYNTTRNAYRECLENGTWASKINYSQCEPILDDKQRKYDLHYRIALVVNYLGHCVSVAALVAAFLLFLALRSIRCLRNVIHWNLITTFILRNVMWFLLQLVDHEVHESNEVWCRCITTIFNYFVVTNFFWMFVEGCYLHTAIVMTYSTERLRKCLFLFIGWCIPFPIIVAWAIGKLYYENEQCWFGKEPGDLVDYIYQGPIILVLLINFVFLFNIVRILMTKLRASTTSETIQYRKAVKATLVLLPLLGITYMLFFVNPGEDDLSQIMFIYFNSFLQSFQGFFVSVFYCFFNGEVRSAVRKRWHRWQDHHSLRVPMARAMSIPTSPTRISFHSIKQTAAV
# T2 sequence (P24387 whole entry): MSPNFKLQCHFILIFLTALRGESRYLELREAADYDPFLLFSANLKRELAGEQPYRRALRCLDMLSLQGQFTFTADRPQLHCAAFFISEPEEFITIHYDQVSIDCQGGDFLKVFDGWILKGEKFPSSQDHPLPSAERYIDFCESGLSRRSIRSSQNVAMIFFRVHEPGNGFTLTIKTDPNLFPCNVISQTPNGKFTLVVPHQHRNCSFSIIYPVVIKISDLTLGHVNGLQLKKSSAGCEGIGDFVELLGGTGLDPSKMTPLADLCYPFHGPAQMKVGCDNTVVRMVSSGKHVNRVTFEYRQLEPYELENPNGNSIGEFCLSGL
# [9] = target: T2, Corticotropin-releasing factor receptor 2/Corticotropin-releasing factor-binding protein; experiment: activators of CRF receptor 2 with binding protein – uHTS hits, confirmation (AID 602473); format: functional; settings: read-out: EC50_Mean
# [10] = test system: Streptococcus sp. 'group A'; experiment: growth inhibition of control SK(-) GAS strain, dose response, counter-screen for streptokinase expression inhibitor project, luminescence, kanamycin, BacTiterGlo, confirmation (AID 1900); format: functional, organism-based
# Streptococcus = experiment: Group A Streptococcus viability loss, dose response, counter-screen for streptokinase expression inhibitor project, luminescence, BacTiterGlo (AID 1915); format: functional, organism-based;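 further: potency for reduction of bacterial viability or growth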
# [11] = growth suppression of PTEN-null colon cells, dose response, cell-based, HCT116 PTEN knockout (AID 1047); format: functional;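 further: HCT116 colon tumor cells with PTEN knocked out; cells exposed to compound for 60 hours before readout; potency for loss of cell viability measured by luminescence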
# [12] = growth suppression of beta-catenin-knockout colon cells, dose response, cell-based, HCT116, human colon tumor (AID 1045); format: functional;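 further: HCT116 colon tumor cells with beta catenin knocked out; cells exposed to compound for 60 hours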
# [13] = target: T3, Heat shock factor protein 1 (Mus musculus, UniProt P38532); experiment: HSF1 potentiators in luciferase reporter cells, confirmation, cell-based, NIH3T3, luminescence, dose retest (AID 435004); format: functional;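 further: stress induced by proteasome inhibitor MG132 added 30 min after compound; luciferase reporter driven by HSF1 response element in NIH3T3 cells; actives raise luminescence as potentiators of the MG132 stress response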
# T3 sequence (P38532 whole entry): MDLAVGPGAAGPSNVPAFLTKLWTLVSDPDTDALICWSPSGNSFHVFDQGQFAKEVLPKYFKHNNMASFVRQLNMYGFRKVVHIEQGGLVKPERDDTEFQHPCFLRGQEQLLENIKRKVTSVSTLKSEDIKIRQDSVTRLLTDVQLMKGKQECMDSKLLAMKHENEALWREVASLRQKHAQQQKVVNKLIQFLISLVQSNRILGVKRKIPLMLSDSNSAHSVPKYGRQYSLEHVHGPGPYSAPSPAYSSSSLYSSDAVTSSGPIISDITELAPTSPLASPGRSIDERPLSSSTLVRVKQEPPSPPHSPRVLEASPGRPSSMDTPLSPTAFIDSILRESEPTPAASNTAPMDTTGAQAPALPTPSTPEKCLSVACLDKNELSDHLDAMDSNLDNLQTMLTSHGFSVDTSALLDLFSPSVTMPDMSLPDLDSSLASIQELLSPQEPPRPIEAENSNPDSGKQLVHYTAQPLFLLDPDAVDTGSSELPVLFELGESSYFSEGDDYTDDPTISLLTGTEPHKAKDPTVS
# Paired box protein Pax-8 = Paired box protein Pax-8 (Homo sapiens, UniProt Q06710); experiment: inhibitors of PAX8-driven TPO luciferase reporter, dose response, RMG-I cells, cherry-pick (AID 687027); format: functional, cell-based;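 further: luciferase reporter driven by Pax8 target thyroperoxidase promoter measured by SteadyGlo luminescence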
# Paired box protein Pax-8, sequence (Q06710 whole entry): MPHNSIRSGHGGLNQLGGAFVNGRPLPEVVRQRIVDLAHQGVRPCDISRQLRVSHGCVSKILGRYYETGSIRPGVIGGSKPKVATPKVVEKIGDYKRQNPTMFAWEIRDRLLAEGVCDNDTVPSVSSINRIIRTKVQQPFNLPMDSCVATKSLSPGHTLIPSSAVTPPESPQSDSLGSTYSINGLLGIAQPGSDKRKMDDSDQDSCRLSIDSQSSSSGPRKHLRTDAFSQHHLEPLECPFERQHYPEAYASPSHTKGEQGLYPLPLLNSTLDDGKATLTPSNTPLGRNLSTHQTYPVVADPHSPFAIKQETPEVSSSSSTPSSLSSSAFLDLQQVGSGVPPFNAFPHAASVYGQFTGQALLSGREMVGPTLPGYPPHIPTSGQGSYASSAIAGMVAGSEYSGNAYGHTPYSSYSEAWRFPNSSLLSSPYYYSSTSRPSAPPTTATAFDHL
# [14] = Luminescence Cell-Based Dose Response HTS to Identify Activators of Luciferase Translation or Activity in H4 […] Cells. [Related pubchem assays: 1829 (Project Summary), 1814 (Primary HTS)]; format: functional
# H4 = experiment: Luminescence Cell-Based Dose Response HTS to Identify Activators of 5'UTR Stem-Loop Driven Prion Protein mRNA Translation in H4 Neuroglioblastoma Cells. [Related pubchem assays: 1829 (Project Summary), 1814 (Primary HTS)]; format: functional; settings: Homo sapiens
compound,measurement,setting,value
CC(=O)NCCc1cc2cc(C)c(C)cc2nc1O,IC50,Protein skinhead-1,> 100 µM (inactive)
Cc1cc(N2CCN(Cc3cn(C)nc3-c3cccc(Cl)c3)CC2)cc(C)n1,EC50,BJ [1],18.7 µM (active)
same,EC50,BJ [2],> 150 µM (inconclusive)
same,EC50,BJ [3],11.3 µM (active)
same,EC50,[4],8.87 µM (active)
same,EC50,[5],10.4 µM (active)
same,EC50,[6],11.8 µM (active)
same,EC50,[7],10.6 µM (active)
Cc1cc(C(=O)CN2C(=O)NC3(CCCc4ccccc43)C2=O)c(C)n1Cc1ccccc1 (configuration not stated),IC50,Protein skinhead-1,> 100 µM (inactive)
COc1nc(-c2ccccc2)ccc1-c1noc(-c2ccco2)n1,IC50,Protein skinhead-1,> 100 µM (inactive)
Cc1nn(C(C)C(=O)O)c(=O)c2ccccc12 (configuration not stated),IC50,[8],> 47.1 µM (inactive)
same,EC50,[9],> 53 µM (inactive)
CCCCc1nnc2c(N(C)S(=O)(=O)c3ccccc3)nc3ccccc3n12,IC50,[8],> 47.1 µM (inactive)
same,EC50,[9],> 53 µM (inactive)
C/C=C/Cn1c(Br)nc2c1c(=O)n(C)c(=O)n2C,EC50,[4],> 120 µM (not active)
same,EC50,[5],> 120 µM (not active)
same,EC50,[7],59.3 µM (active)
CCCCN(CC)S(=O)(=O)c1ccc(C(=O)Nc2nnc(-c3ccccc3Cl)o2)cc1,EC50,[10],0.2 µM (active)
same,EC50,Streptococcus,0.737 µM (active)
same,EC50,[4],12.1 µM (active)
same,EC50,[5],11.9 µM (active)
same,EC50,[7],10 µM (active)
COC(=O)c1sc(-c2ccccc2)cc1NC(=O)c1cc(OC)cc(OC)c1,EC50,[11],25.3 µM (active)
same,EC50,[12],21.7 µM (active)
COc1ccc(S(=O)(=O)NNC(=O)c2csc(-n3nc(C)cc3C(F)(F)F)n2)cc1,IC50,[8],> 47.1 µM (inactive)
same,EC50,[9],> 53 µM (inactive)
O=C(/C=C/c1ccc(-c2ccccc2[N+](=O)[O-])o1)c1ccccc1,EC50,[11],22.5 µM (active)
same,EC50,[12],22.3 µM (active)
N=c1n(CCO)c2ccccc2n1CCOc1ccc(Cl)cc1Cl,EC50,[11],8.23 µM (active)
same,EC50,[12],8.45 µM (active)
O=[N+]([O-])c1ccc(COc2cccc3cccnc23)cc1,IC50,Protein skinhead-1,> 100 µM (inactive)
COc1ccc(CN(Cc2cc3cc4c(cc3nc2O)OCO4)C(=O)NC2CCCCC2)cc1,EC50,[4],> 120 µM (not active)
same,EC50,[5],17.8 µM (active)
same,EC50,[7],> 120 µM (not active)
O=C(c1ccc2c(=O)n3c(nc2c1)CCCCC3)N1CCN(C(c2ccccc2)c2ccccc2)CC1,EC50,[13],> 260 µM (inactive)
same,EC50,[4],28.3 µM (active)
same,EC50,[5],12.7 µM (active)
same,EC50,[7],24.1 µM (active)
CC(=O)Nc1ccc(NC(=O)CN(c2ccc(C(C)C)cc2)S(=O)(=O)c2ccccc2)cc1,EC50,[4],> 120 µM (not active)
same,EC50,[5],> 120 µM (not active)
same,EC50,[7],> 120 µM (not active)
CCn1c2ccc(F)cc2c2nc3ccccc3nc21,IC50,Protein skinhead-1,> 100 µM (inactive)
C=C(C)c1cccc(C(C)(C)NC(=O)N2CCN(c3ccccc3OC)CC2)c1,AC50,Paired box protein Pax-8,65.2 µM (active)
COc1ccc(NC(=O)c2cc(C(=O)Nc3ccc(OC)cc3OC)cc([N+](=O)[O-])c2)c(OC)c1,IC50,[8],> 47.1 µM (inactive)
same,EC50,[9],> 53 µM (inactive)
CC(C1CC1)N(Cc1ccccc1)C(S)=Nc1cccc(C(F)(F)F)c1 (configuration not stated),AC50,Paired box protein Pax-8,33.2 µM (active)
O=C(COC(=O)CC1c2ccccc2CCN1S(=O)(=O)c1ccc(F)cc1)Nc1ccccc1 (configuration not stated),IC50,[8],> 47.1 µM (inactive)
same,EC50,[9],> 53 µM (inactive)
COc1ccc(C)cc1C(=O)CCC(=O)Nc1ccccc1N1CCOCC1,EC50,[11],7.32 µM (active)
same,EC50,[12],5.33 µM (active)
O=C(c1ccc(Br)cc1)N1CCN(c2ncccn2)CC1,IC50,[8],> 47.1 µM (inactive)
same,EC50,[9],> 53 µM (inactive)
CCCC1(CCC)NC(=O)N(CC(=O)Nc2ccc(Cl)c(S(=O)(=O)N3CCOCC3)c2)C1=O,IC50,[8],> 47.1 µM (inactive)
same,EC50,[9],> 53 µM (inactive)
CN(C)c1ccc(/C=C(/C#N)C(=O)Nc2nc3c(s2)CCN(Cc2ccccc2)C3)cc1,IC50,Protein skinhead-1,> 100 µM (inactive)
same,EC50,[9],2.1 µM (active)
C[C@H](O)[C@@H]1CN2CCc3c([nH]c4ccc(-c5ccc6c(c5)OCO6)cc34)[C@@H]2C[C@@H]1N(C)C(=O)NC1CCCCC1,AC50,Paired box protein Pax-8,5.9 µM (active)
CCn1ncc(C(=O)Nc2ccc([N+](=O)[O-])cc2OC)c1C,IC50,[8],> 47.1 µM (inactive)
same,EC50,[9],> 53 µM (inactive)
COc1cc(/C=N/NC(=O)c2ccc(CN3C(=O)c4cccc5cccc3c45)cc2)cc(OC)c1O,AC50,Paired box protein Pax-8,0.286 µM (active)
C=CCN(c1ccc(C(=O)NC(C)C)cc1)S(C)(=O)=O,IC50,Protein skinhead-1,> 100 µM (inactive)
COC(=O)[C@]12CCCCC=C1N(Cc1ccc(Cl)cc1Cl)C(=O)[C@H](CC(=O)N1CCN(C(=O)c3ccco3)CC1)C2,AC50,Paired box protein Pax-8,1.33 µM (active)
O=S(=O)(c1ccc(F)cc1)N1C[C@H]2[C@@H](c3ccccc31)[C@H](CO)N2Cc1ccccc1Cl,AC50,Paired box protein Pax-8,11 µM (active)
C[C@@H]1CN([C@@H](C)CO)C(=O)c2cccc(NC(=O)c3ccncc3)c2O[C@@H]1CN(C)S(=O)(=O)c1cccs1,AC50,Paired box protein Pax-8,69.5 µM (active)
C[C@H]1CCCCO[C@H](CN(C)C(=O)Nc2ccc(C(F)(F)F)cc2)[C@@H](C)CN([C@@H](C)CO)C(=O)c2cc(NS(=O)(=O)c3cccs3)ccc2O1,AC50,Paired box protein Pax-8,7.75 µM (active)
N#C/C(=C\c1cccnc1)c1ccc(Br)cc1,IC50,Protein skinhead-1,> 100 µM (inactive)
O=c1c2cc(-c3ccccc3)sc2ncn1/N=C/c1ccco1,EC50,[14],14.8 µM (active)
same,IC50,Protein skinhead-1,22.1 µM (active)
same,EC50,H4,56.4 µM (active)
O=C(N/N=C/c1ccccc1O)c1cccc2ccccc12,EC50,[10],1.58 µM (active)
same,EC50,Streptococcus,6.12 µM (active)
same,EC50,[4],17.1 µM (active)
same,EC50,[5],2.12 µM (active)
same,EC50,[7],6.71 µM (active)
CC/N=C1\S/C(=C\c2ccc(Sc3ccc(Cl)cc3)o2)C(=O)N1CC,EC50,[4],> 120 µM (not active)
same,EC50,[5],21.4 µM (active)
same,EC50,[7],> 120 µM (not active)
